# Measurements from ChEMBL document CHEMBL1201862, “PubChem BioAssay data set” (2004).
# The source made the active and inactive calls.
# How the values were obtained:
# [1] = biological target: Photoreceptor-specific nuclear receptor (Homo sapiens, UniProt Q9Y5X4); assay type: functional, cell-based;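 also: CHO-S cells with Gal4-NCOR and VP16-NR2E3 two-hybrid luciferase reporter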
# [2] = biological target: Adenosylmethionine-8-amino-7-oxononanoate aminotransferase (Mycobacterium tuberculosis, UniProt P9WQ81); assay: Mycobacterium tuberculosis BioA enzyme inhibitor Measured in Biochemical System Using Plate Reader - 2163-02_Inhibitor_Dose_CherryPick_Activity.; assay type: functional, Mycobacterium tuberculosis UT205
# cells [3] = assay type: functional, cell-based
# [4] = biological target: T1, Nuclear receptor subfamily 0 group B member 1 (Homo sapiens, UniProt P51843); assay type: functional, cell-based;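 also: HEK293T cells transfected with SF-1 and DAX-1 plus StAR promoter luciferase reporter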
# T1 sequence (P51843 whole entry): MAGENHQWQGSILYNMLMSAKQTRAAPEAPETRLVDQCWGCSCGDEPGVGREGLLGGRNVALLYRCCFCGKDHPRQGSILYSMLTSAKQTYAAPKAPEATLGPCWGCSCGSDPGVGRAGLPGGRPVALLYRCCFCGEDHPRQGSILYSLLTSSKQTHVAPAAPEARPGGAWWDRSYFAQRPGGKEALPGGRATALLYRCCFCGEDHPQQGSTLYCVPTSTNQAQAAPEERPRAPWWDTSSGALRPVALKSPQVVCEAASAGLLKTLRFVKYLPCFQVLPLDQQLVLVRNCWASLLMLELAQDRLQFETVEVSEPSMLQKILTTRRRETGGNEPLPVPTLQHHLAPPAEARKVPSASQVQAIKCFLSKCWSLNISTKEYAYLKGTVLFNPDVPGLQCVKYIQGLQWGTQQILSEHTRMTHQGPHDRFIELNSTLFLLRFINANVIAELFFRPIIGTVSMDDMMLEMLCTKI
# cells [5] = assay type: functional, cell-based; remark: listed apart in the source
# [6] = biological target: T2, Trace amine-associated receptor 1 (Homo sapiens, UniProt Q96RJ0); assay: Fluorescence-based cell-based high throughput dose response assay to identify agonists of the human trace amine associated receptor 1 (TAAR1).; assay type: functional
# T2 sequence (Q96RJ0 whole entry): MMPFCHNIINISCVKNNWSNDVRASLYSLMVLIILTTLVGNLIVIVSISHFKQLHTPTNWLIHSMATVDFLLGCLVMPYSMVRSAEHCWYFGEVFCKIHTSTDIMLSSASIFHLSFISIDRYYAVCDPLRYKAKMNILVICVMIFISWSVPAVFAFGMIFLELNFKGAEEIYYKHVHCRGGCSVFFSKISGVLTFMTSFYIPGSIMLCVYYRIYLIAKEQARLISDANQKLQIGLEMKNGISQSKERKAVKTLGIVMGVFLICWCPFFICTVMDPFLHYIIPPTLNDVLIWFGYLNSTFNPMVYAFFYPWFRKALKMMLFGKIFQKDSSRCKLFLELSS
# [7] = biological target: T2, Trace amine-associated receptor 1; assay: Counterscreen for agonists of the human trace amine associated receptor 1 (hTAAR1): Fluorescence-based cell-based high throughput dose response assay to identify hTAAR1 agonist that also desensitize TAAR1 receptor response.; assay type: functional
# cells [8] = assay type: functional, cell-based; remark: listed apart in the source
# [9] = biological target: T3, Heat shock factor protein 1 (Mus musculus, UniProt P38532); assay: inhibition of MG132-induced HSE-luciferase signal, confirmation, cell-based, NIH3T3, luminescence, dose retest (AID 2382); assay type: functional;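 also: NIH3T3 fibroblasts with HSF1-driven luciferase reporter stressed by proteasome inhibitor MG132; luminescence from HSF1-driven luciferase expression after 8 hours of MG132 stress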
# T3 sequence (P38532 whole entry): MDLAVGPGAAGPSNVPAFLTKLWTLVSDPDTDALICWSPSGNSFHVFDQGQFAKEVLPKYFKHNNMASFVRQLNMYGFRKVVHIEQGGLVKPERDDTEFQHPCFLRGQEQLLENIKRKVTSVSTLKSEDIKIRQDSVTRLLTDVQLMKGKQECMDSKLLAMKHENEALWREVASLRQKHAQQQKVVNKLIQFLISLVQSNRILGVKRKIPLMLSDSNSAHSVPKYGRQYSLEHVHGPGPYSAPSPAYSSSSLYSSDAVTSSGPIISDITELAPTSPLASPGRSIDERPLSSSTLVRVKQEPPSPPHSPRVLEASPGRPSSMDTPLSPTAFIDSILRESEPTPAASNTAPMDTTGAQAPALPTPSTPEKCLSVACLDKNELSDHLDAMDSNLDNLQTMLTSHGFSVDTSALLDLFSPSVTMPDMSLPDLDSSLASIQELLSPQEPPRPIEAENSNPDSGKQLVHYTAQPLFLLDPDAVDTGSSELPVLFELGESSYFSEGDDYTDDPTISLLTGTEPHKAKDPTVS
# [10] = biological target: Luciferin 4-monooxygenase (Photinus pyralis, UniProt P08659); assay: firefly luciferase enzyme inhibitors, dose response, biochemical, luminescence (AID 1891)
# [11] = Luminescence Cell-Based Dose Confirmation HTS to Identify Inhibitors of Platelet Dense Granule Release. [Related pubchem assays: 1663 (Primary HTS), 1678 (Summary of Project)]; assay type: functional
# [12] = biological target: FAD-linked sulfhydryl oxidase ALR (Homo sapiens, UniProt P55789); assay: inhibitors of human ALR sulfhydryl oxidase, dose response, biochemical, H2O2 detection, luminescence, cherry-pick (AID 493248)
# [13] = ARNT/TACC3 interaction disruptors, potency, confirmation, biochemical, AlphaScreen, cherry-picked samples (AID 651703); assay type: functional, Homo sapiens;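 also: His-tagged ARNT PAS-B domain paired with GST-TACC3 E629A dimer coactivator fragment; potency of inhibitors that break up the complex and lower AlphaScreen signal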
# Melanocortin receptor 4 = Melanocortin receptor 4 (Homo sapiens, UniProt P32245); assay: MC4R antagonist potency on cAMP, dose response, cell-based, TR-FRET, biased antagonists (AID 602298); assay type: functional;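 also: antagonist potency against agonist-stimulated cAMP production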
# [14] = nonselective inhibitors of cellular cAMP signaling, dose response, counter-screen for MC4R biased antagonist project, cell-based, TR-FRET cAMP detection (AID 602305); assay type: functional;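 also: U2OS cells stimulated with forskolin near its EC80 as the cAMP inducer; potency is for inhibition of forskolin-stimulated cAMP signaling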
# Mu-type opioid receptor = Mu-type opioid receptor (Homo sapiens, UniProt P35372); assay type: functional, cell-based;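 also: U2OS cells with beta-arrestin recruitment to OPRM1 by beta-gal complementation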
# [15] = biological target: 5-hydroxytryptamine receptor 2A (Mus musculus, UniProt P35363); assay type: functional, cell-based;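 also: CHO-K1 cells with tagged receptor and beta-arrestin; agonist potency measured as compound-induced activation of the receptor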
# INS1 = assay: beta cell apoptosis inhibitors, cytokine rescue, dose response, luminescence, retest (AID 449756); assay type: functional, cell-based; conditions: Rattus norvegicus;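 also: cell death triggered by IL-1 beta plus TNF-alpha plus IFN-gamma mixture; protective hits raise ATP signal compared with cytokine alone wells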
# Protein Wnt-3a = Protein Wnt-3a (Mus musculus, UniProt P27467); assay: Wnt3a-driven reporter signaling inhibition, dose response, selectivity assay for Gli-SUFU antagonist project, Wnt-LIGHT cells, luminescence (AID 651570); assay type: functional; conditions: read-out: IC50_Mean;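 also: Wnt-LIGHT reporter cells stimulated with conditioned medium from Wnt3a-producing cells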
# [16] = Shn3 3'UTR reporter inhibitors, dose response, cell-based, Clone20 osteoblasts, firefly luciferase, cherry-picked (AID 624132); assay type: functional;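 also: firefly luciferase luminescence from reporter carrying the Shn3 3'UTR in osteoblasts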
# [17] = HepG2 cell cytotoxicity, dose response, cytotoxicity control for Shn3 inhibitor project, CellTiter-Glo, cherry-picked (AID 624134); assay type: functional, cell-based
# [18] = control 3'UTR Renilla luciferase suppression, dose response, counter-screen for Shn3 inhibitor project, cell-based, Clone20-Shn3RL, cherry-picked (AID 624133); assay type: functional
# [19] = biological target: Nuclear receptor subfamily 5 group A member 2 (Homo sapiens, UniProt O00482); assay type: functional, cell-based;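 also: HEK293T cells transfected with LRH-1 and a StAR promoter luciferase reporter; potency for inhibitors that lower LRH-1 driven reporter light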
# Steroidogenic factor 1 = Steroidogenic factor 1 (Homo sapiens, UniProt Q13285); assay: Counterscreen for inverse agonists of the liver receptor homolog-1 (LRH-1; NR5A2): Luminescence-based cell-based high throughput dose response assay to identify inverse agonists of the Steroidogenic Factor 1 Nuclear Receptor (SF1; NR5A1).; assay type: functional
# [20] = StAR promoter reporter inhibition counter-screen, dose response, counter-screen for LRH-1 inverse agonist project, cell-based, luminescence, luciferase reporter (AID 651969); assay type: functional
# Albumin = Albumin (Bos taurus, UniProt P02769); assay: Counterscreen for inhibitors of T-cell receptor (TCR)-CD3 interaction: Fluorescence-based biochemical high throughput dose response assay to identify inhibitors of T-cell receptor (TCR)-CD3 interaction using a TAMRA-labeled BSA probe.; assay type: functional
# [21] = Luminescence Cell-Based Dose Retest to Confirm Inhibitors of Cancer Stem Cells. [Related pubchem assays (depositor defined):AID2717, AID2721]; assay type: functional; conditions: Homo sapiens
# [22] = biological target: Ras and Rab interactor 1/Tyrosine-protein kinase ABL1 (Homo sapiens, UniProt P00519+Q13671); assay type: functional;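 also: biochemical TR-FRET dose-response test measuring inhibition of binding between Rin1 and Abl proteins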
# [23] = biological target: T4, Corticotropin-releasing factor receptor 2/Corticotropin-releasing factor-binding protein (Homo sapiens, UniProt P24387+Q13324); assay: Dose Response confirmation of uHTS hits for small molecule antagonists of the CRF-binding protein and CRF-R2 receptor complex.; assay type: functional; conditions: read-out: IC50_Mean
# T4 sequence (Q13324 whole entry): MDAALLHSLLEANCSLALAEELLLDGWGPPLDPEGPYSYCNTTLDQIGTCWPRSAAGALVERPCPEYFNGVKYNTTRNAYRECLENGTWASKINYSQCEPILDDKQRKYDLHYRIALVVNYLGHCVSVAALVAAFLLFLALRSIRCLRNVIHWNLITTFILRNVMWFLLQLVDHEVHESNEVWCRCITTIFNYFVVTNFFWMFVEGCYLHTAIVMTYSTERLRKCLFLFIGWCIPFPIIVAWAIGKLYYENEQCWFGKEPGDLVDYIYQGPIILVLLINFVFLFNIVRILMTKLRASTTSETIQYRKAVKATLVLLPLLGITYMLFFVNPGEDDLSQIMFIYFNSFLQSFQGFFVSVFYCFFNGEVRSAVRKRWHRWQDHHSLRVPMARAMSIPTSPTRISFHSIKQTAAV
# T4 sequence (P24387 whole entry): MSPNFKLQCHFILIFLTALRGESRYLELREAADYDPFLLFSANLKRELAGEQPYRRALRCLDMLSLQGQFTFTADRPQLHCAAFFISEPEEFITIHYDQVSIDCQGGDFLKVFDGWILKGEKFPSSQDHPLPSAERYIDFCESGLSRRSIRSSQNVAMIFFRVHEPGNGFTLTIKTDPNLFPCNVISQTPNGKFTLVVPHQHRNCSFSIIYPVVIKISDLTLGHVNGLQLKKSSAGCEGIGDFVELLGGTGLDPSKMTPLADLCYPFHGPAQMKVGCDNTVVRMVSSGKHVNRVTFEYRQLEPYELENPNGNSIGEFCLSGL
# [24] = biological target: T4, Corticotropin-releasing factor receptor 2/Corticotropin-releasing factor-binding protein; assay: activators of CRF receptor 2 with binding protein – uHTS hits, confirmation (AID 602473); assay type: functional; conditions: read-out: EC50_Mean
# Chain of Photoreceptor-specific nuclear receptor (Q9Y5X4 whole entry, the tested form may be a part): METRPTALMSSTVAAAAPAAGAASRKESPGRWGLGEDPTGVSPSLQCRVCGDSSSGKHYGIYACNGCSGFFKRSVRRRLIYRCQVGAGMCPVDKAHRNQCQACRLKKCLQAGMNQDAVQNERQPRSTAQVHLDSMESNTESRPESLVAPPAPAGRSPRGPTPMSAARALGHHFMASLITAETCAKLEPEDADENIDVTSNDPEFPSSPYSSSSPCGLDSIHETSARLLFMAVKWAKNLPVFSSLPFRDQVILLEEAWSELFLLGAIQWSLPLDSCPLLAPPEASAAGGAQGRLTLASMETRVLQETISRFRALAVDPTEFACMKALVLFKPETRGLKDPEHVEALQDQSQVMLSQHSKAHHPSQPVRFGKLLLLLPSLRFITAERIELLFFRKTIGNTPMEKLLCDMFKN
# Chain of Melanocortin receptor 4 (P32245 whole entry): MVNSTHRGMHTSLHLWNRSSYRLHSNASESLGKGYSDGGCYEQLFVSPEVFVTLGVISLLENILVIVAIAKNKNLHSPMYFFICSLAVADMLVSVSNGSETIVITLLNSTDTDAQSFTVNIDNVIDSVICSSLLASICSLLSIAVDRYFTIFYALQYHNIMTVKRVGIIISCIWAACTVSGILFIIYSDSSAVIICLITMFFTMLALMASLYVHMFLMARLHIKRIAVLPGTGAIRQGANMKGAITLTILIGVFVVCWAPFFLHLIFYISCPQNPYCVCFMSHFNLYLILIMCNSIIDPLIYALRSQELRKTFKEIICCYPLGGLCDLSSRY
# Chain of Steroidogenic factor 1 (Q13285 whole entry): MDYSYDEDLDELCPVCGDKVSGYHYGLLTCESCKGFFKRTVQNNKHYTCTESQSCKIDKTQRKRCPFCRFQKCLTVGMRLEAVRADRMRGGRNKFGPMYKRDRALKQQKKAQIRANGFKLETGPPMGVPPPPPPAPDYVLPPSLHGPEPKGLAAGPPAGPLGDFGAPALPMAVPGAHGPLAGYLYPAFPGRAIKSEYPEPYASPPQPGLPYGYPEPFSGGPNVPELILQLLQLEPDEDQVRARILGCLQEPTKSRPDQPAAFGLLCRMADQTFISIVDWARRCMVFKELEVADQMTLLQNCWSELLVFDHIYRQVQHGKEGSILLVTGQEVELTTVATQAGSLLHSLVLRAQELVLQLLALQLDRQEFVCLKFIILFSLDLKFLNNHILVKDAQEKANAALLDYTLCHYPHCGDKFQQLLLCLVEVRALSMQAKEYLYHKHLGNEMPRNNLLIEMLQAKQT
# Chain of Mu-type opioid receptor (P35372 whole entry): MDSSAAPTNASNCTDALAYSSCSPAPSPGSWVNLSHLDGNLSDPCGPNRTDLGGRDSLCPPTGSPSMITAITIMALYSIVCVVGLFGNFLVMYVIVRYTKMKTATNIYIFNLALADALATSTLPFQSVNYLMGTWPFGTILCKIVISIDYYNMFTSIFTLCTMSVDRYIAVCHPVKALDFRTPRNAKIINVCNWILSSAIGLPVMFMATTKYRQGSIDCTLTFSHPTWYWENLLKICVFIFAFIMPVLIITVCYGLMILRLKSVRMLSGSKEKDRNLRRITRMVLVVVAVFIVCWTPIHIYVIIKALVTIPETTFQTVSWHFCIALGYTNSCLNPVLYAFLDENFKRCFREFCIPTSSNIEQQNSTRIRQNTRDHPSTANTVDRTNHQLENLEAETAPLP
# Chain of Nuclear receptor subfamily 5 group A member 2 (O00482 whole entry): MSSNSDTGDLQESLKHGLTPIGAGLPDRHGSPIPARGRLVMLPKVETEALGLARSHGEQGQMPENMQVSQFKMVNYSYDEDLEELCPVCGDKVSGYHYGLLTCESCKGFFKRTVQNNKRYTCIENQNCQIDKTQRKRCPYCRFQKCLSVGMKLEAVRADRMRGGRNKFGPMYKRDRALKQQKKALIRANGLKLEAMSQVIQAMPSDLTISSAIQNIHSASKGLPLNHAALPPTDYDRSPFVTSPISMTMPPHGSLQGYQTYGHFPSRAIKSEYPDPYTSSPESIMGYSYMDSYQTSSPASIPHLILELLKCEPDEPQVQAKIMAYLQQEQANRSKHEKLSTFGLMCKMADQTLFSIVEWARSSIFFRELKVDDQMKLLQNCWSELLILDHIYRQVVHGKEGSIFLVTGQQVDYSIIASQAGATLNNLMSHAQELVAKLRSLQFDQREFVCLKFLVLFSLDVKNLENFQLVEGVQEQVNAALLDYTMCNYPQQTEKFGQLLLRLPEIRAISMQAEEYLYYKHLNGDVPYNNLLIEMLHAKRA
# Chain of Protein Wnt-3a (P27467 whole entry): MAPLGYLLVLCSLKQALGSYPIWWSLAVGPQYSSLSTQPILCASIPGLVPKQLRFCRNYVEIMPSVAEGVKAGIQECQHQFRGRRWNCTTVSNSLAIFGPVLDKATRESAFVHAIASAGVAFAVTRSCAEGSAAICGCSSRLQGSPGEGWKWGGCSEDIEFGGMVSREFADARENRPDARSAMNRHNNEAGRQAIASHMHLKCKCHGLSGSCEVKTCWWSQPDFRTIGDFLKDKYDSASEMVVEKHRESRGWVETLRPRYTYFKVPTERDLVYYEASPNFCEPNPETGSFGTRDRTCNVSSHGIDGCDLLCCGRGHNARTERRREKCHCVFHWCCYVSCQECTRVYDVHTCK
# Chain of Adenosylmethionine-8-amino-7-oxononanoate aminotransferase (P9WQ81 whole entry): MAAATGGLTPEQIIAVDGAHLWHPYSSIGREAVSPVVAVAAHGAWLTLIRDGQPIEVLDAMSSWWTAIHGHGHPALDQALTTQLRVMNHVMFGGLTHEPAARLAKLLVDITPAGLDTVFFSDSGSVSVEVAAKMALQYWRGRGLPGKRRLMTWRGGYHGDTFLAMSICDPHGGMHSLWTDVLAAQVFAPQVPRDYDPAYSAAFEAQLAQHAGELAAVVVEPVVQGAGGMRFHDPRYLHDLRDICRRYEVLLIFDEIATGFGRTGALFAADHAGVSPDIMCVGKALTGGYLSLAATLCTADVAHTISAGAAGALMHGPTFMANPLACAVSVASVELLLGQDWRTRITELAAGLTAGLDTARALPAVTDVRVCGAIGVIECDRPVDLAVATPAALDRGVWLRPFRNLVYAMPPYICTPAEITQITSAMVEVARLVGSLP
# Chain of Ras and Rab interactor 1/Tyrosine-protein kinase ABL1 (P00519 whole entry): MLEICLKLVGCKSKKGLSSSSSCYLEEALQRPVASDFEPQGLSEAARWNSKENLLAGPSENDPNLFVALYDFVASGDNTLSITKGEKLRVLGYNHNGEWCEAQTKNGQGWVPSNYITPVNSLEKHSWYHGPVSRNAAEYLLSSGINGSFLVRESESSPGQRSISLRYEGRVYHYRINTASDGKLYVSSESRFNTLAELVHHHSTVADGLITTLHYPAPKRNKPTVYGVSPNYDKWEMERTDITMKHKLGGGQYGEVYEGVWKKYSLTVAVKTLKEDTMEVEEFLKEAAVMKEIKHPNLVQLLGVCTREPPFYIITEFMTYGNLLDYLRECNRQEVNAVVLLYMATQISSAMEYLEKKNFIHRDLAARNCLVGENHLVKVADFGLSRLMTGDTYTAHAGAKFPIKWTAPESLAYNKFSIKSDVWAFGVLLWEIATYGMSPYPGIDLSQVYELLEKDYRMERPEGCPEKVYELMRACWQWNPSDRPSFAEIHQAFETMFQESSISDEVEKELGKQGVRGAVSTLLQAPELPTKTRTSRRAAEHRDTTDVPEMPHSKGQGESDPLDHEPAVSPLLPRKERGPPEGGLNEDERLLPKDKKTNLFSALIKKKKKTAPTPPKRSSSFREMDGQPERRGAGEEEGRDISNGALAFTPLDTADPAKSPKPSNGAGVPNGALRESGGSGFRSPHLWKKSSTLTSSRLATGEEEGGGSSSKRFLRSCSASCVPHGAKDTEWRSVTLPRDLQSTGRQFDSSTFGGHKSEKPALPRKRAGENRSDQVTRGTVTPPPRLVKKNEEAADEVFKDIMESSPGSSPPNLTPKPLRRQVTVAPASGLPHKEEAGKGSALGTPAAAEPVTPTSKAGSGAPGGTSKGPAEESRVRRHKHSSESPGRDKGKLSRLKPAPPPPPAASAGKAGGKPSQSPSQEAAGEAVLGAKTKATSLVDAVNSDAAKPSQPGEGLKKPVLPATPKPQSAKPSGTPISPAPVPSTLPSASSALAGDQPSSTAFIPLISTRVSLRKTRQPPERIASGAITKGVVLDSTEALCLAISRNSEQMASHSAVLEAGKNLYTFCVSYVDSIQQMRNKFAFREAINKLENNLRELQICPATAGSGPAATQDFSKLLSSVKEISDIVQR
# Chain of Ras and Rab interactor 1/Tyrosine-protein kinase ABL1 (Q13671 whole entry): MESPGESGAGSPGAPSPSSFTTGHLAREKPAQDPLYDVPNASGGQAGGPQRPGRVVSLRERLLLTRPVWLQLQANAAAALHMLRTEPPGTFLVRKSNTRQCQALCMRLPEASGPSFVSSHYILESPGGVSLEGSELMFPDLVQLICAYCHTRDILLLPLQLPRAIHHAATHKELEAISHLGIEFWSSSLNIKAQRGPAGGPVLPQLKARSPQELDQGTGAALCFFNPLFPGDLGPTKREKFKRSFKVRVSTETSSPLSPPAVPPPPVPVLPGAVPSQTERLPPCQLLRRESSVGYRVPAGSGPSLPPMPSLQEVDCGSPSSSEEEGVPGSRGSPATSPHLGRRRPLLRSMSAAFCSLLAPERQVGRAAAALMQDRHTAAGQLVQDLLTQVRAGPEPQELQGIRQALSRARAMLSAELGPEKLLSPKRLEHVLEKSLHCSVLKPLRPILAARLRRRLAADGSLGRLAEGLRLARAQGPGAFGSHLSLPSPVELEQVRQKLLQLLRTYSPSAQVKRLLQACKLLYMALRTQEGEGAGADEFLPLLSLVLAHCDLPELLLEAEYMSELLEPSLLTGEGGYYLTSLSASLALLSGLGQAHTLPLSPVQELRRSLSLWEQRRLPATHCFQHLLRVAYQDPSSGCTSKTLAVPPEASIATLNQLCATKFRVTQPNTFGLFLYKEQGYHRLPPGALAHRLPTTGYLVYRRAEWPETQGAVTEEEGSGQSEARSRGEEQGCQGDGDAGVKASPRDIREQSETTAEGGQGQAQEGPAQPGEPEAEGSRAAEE
smiles,measurement,setting,value
c1ccc(CNc2ncnc3sccc23)cc1,IC50,[1],3.7 µM (active)
O=C(Cc1ccccc1)N1CC[C@@H]2[C@H](CO)Nc3ccc(Br)cc3[C@@H]21,AC50,[2],3.09 µM (active)
O=C(Nc1ncccc1O)c1ccc(S(=O)(=O)N2CCCCCC2)cc1,IC50,cells [3],> 67.5 µM (inactive)
same,IC50,[4],31.7 µM (inactive)
COc1ccccc1CC(=O)NCCc1ccccc1,IC50,cells [5],> 29.9 µM (inactive)
same,EC50,[6],3.18 µM (active)
same,IC50,[7],9 µM (active)
same,EC50,cells [8],> 29.9 µM (inactive)
NNC(=O)c1ccc(O)cc1O,EC50,[9],> 195 µM (not active)
same,EC50,[10],> 112 µM (not active)
same,EC50,[11],> 112 µM (not active)
same,AC50,[12],16 µM (active)
same,AC50,[13],91.8 µM (active)
COc1cc(-c2nc3ccc4ccccc4c3c3c2CCC3)cc(OC)c1OC,IC50,Melanocortin receptor 4,43.1 µM (inactive)
same,IC50,[14],> 64.6 µM (inactive)
COc1ccc(C(C)NC(=O)Nc2ccc(C(C)=O)cc2)cc1OC (stereo not given),AC50,[2],3.72 µM (active)
Brc1ccc(CN2CCN(c3ccccn3)CC2)s1,EC50,Mu-type opioid receptor,92.5 µM (inactive)
same,EC50,[15],0.0705 µM (active)
CCCC(C)C(=O)Nc1nc(C)c(-c2csc(Nc3ccc(Cl)cc3)n2)s1 (stereo not given),AC50,INS1,4.18 µM (active)
same,IC50,Protein Wnt-3a,13.8 µM (active)
Cc1cc(Br)c(S(=O)(=O)NCc2ccncc2)cc1C,AC50,[16],1.41 µM (active)
same,AC50,[17],2.37 µM (active)
same,AC50,[18],3.34 µM (active)
same,IC50,Protein Wnt-3a,3.16 µM (active)
CN1C(=O)C(=CN2CCN(C(=O)c3ccco3)CC2)C(=O)N(C)C1=S,IC50,cells [5],> 29.9 µM (inactive)
same,EC50,[6],4.85 µM (active)
same,IC50,[7],> 29.9 µM (inactive)
same,EC50,cells [8],> 29.9 µM (inactive)
COc1ccnc(Oc2ccccc2)c1C(=O)N=CNOCc1ccccc1F,IC50,[19],3.99 µM (active)
same,IC50,Steroidogenic factor 1,3.65 µM (active)
same,IC50,[20],26.1 µM (inactive)
COc1cc(OC)cc(C(=O)N/N=C/c2ccc(OC)c(COc3ccc4ccccc4c3)c2)c1,IC50,Albumin,> 94.1 µM (inactive)
O=C(Nc1ccccc1N1CCCCC1)c1ccc(Cl)c([N+](=O)[O-])c1,AC50,[21],3.19 µM (active)
same,IC50,Melanocortin receptor 4,> 64.6 µM (inactive)
same,IC50,[14],> 64.6 µM (inactive)
O=C(OCCOc1ccc(Cl)cc1)c1cc(S(=O)(=O)N2CCCCC2)ccc1N1CCOCC1,AC50,[16],1.97 µM (active)
same,AC50,[17],> 70 µM (inactive)
same,AC50,[18],6.64 µM (active)
same,IC50,[1],4.3 µM (active)
COc1ccc(CCNC(=O)c2ccc(NC3=NC4CS(=O)(=O)CC4S3)cc2)cc1OC (stereo not given),IC50,[22],26.3 µM (inactive)
Cn1ccc(C(=O)Nc2sc3c(c2C(N)=O)CCCCC3)n1,IC50,[23],> 47.1 µM (inactive)
same,EC50,[24],> 53 µM (inactive)
same,IC50,cells [3],> 67.5 µM (inactive)
same,IC50,[4],> 2.5 µM (active)
CN(Cc1ccccc1)S(=O)(=O)c1ccc(Cl)c(C(=O)N2CCC2)c1,IC50,[22],32.9 µM (inactive)
O=C(Nc1ccc(C(=O)N2CCOCC2)cc1)c1cccc([N+](=O)[O-])c1,IC50,[19],15 µM (inactive)
same,IC50,Steroidogenic factor 1,1.09 µM (active)
same,IC50,[20],35.9 µM (inactive)
Cc1cccc(C)c1OCC(O)CN1CCN(c2ccccc2)CC1 (stereo not given),EC50,Mu-type opioid receptor,92.5 µM (inactive)
same,EC50,[15],76.1 µM (inactive)
